The record followed here is US10562912B2 (C&C Research Laboratories, priority 2013, dated 2020).

Format in all cases: cell-based
For one experiment, the target named is T1, STAT3 (Homo sapiens, UniProt P40763).
T1 construct: plasmid pSTAT3-TA-luc), which contains a stably operating STAT3 promoter; endogenous in cells
Put plainly: STAT3 reporter gene assay (luciferase), LNCaP stable cell line (pSTAT3-TA-luc), IL-6 stimulation. The procedure: 1-1) Experiment on the Inhibition of STAT3 Activity
A human prostate cancer cell line (LNCaP stable cell line; plasmid pSTAT3-TA-luc), which contains a stably operating STAT3 promoter, was cultured in RPMI1640 medium (Cat No. 11875, Life Technologies) containing 10% fetal bovine serum (FBS) (Cat No. SH30396, Thermo Scientific) and 150 μg/mL G-418 solution (Cat No. 04 727 894 001, Roche). The reporter gene assay using LNCaP stable cell line was performed in RPMI1640 medium containing 3% DCC-FBS without G-418 solution. LNCaP stable cells were plated in two (2) white 96-well plates with 30,000 cells/50 μL in each well. The cells were cultured at 37° C., under 5% CO2 for 24 hours, and then treated with the compounds listed in Examples which were diluted in various concentrations. Subsequently, IL-6 was added to each well with a final concentration of 10 ng/mL. Upon completion of the treatment with the compounds and IL-6, the cells were cultured at 37° C., under 5% CO2 for from 24 to 48 hours. The plates were observed under microscope and drug precipitation and particular findings were investigated and recorded.
The luciferase assay and the cell viability assay were performed respectively with one of the two plates. For the luciferase assay, the liquid media in the 96-well plate was removed, and then, 20 μL of passive cell lysis buffer was added to each well. After shaking the plate for 30 minutes, luciferase activities of each well were measured in a PHERAstar™ microplate reader (BMG LABTECH) using a luciferase assay system (Cat No. E1501, Promega). For the cell viability assay, the 96-well plate was placed at room temperature for 30 minutes, added with 20 μL/well of CellTiter-Glo solution (Cat No. G7573, Promega), and shaken for 10 minutes in order to measure cytotoxicity caused by the compounds listed in Examples with a PHERAstar™ microplate reader (BMG LABTECH). Wells without 0.1% DMSO and stimulation were used as a negative control and wells with 0.1% DMSO and stimulation were used as a positive control.
(A reporter such as luciferase makes a cellular process visible.)

A further experiment relates to LNCaP. Put plainly: Cell growth inhibition assay, prostate cancer cell line LNCaP (medium with 10 ng/mL IL-6). The note with it: Homo sapiens, medium supplemented with 10 ng/mL of IL-6, 10,000 cells/well. As to the method:
(§1) The inhibitory effects of the compounds of the present invention against the growth of cancer cells were evaluated as shown below. The cancer cell lines including stomach cancer cell line (AGS), breast cancer cell lines (MDA-MB-231, MDA-MB-468, and BT-549), prostate cancer cell lines (LNCaP and DU-145), colon cancer cell line (HCT116), ovarian cancer cell line (SW626), liver cancer cell line (Hep3B), kidney cancer cell line (ACHN), lung cancer cell line (NCI-H23) and blood cancer cell lines (HEL92.1.7 and U266) were cultured under the protocol provided by each supplier. A medium supplemented with 10 ng/mL of IL-6 was used for LNCaP, a prostate cancer cell line, when treated with a drug. Each type of cells to be used in experiments were sub-cultured in a 96-well plate by counting the exact number of cells using Tali™ Image-based Cytometer (Life Technologies). In a 96-well plate, AGS, HCT116, and DU-145 were employed with 3,000 cells/well; NCI-H23, SW626, Hep3B, ACHN, BT-549, MDA-MB-231, HEL92.1.7, and U266 were employed with 5,000 cells/well; and LNCaP and MDA-MB-468 were employed with 10,000 cells/well. The cells were treated with the compounds listed in Examples which were diluted in various concentrations. Upon completion of the compounds treatment, AGS, HCT116, SW626, DU145, NCI-H23, Hep3B, ACHN, BT-549, LNCaP, HEL92.1.7, and U266 cells were cultured at 37° C. under 5% CO2 for from 72 to 96 hours, and MDA-MB-231 and MDA-MB-468 cells were cultured at 37° C. in air for from 72 to 96 hours. Subsequently, the cells were observed under microscope and drug precipitation and particular findings were investigated and recorded. And then, the 96-well plate was placed at room temperature for 30 minutes, added with 20 μL/well of CellTiter-Glo solution (Cat No. G7573, Promega) and shaken for 10 minutes, followed by being subjected to the measurement using PHERAstar™ microplate reader (BMG LABTECH) according to the supplier's general luminometer protocol. Wells where only culture liquid added without cell plating were used as a negative control, whereas wells where culture liquid containing 0.1% DMSO instead of the compounds listed in Examples were used as a positive control.

A further experiment relates to DU-145. The experiment in a line: Cell growth inhibition assay, prostate cancer cell line DU-145. As to conditions: Homo sapiens, DU-145 prostate cancer cell line. As to the method: as §1

T1 sequence (P40763 whole entry): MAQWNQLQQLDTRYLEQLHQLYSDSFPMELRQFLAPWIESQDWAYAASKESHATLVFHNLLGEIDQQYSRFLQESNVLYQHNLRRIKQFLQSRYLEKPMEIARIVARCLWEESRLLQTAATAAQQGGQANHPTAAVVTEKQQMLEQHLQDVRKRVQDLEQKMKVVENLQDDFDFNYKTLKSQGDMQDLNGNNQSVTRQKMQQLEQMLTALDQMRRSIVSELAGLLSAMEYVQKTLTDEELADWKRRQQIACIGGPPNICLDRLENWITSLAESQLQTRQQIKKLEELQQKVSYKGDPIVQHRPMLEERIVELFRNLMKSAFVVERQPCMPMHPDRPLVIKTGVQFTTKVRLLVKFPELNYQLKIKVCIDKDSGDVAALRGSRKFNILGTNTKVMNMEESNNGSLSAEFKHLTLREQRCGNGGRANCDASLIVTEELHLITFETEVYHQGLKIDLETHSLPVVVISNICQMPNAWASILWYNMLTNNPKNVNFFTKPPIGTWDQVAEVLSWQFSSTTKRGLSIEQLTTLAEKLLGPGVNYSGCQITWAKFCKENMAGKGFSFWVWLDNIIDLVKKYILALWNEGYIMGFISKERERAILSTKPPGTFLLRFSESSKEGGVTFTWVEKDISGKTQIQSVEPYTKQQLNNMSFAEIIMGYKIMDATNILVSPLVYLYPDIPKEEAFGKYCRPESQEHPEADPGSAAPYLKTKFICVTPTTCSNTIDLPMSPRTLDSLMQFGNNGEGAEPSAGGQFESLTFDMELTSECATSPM

One may read the IC50 as the concentration at which inhibition is half-maximal. A lower IC50 goes with inhibition by little substance. In the case of `CC(C)Oc1cc(CN2CCS(=O)(=O)CC2)cc(C(C)(C)c2cc(Cl)cc(NC(=O)c3cc4cc(NS(C)(=O)=O)ccc4s3)c2)c1` [Example 132, N-(3-chloro-5-(2-(3-((1,1-dioxidothiomorpholino)methyl)-5-isopropoxyphenyl)propan-2-yl)phenyl)-5-(methylsulfonamido)benzo[b]thiophene-2-carboxamide], the IC50 is 0.35 µM against STAT3, 0.97 µM in the experiment with LNCaP and 0.41 µM with DU-145.
Regarding `CC(C)Oc1cc(CN2CCN(C(=O)N(C)C)CC2)cc(C(C)(C)c2cc(Cl)cc(NC(=O)c3cc4cc(NS(C)(=O)=O)ccc4s3)c2)c1` [Example 133, 4-(3-(2-(3-chloro-5-(5-(methylsulfonamido)benzo[b]thiophene-2-carboxamido)phenyl)propan-2-yl)-5-isopropoxybenzyl)-N,N-dimethylpiperazine-1-carboxamide], the concentration for half-maximal inhibition (IC50) against STAT3 stood at 0.15 µM; with LNCaP it was 0.7 µM; in the experiment on DU-145, 0.22 µM.
Take `CC(C)Oc1cc(CN2CCC3(CC2)COC3)cc(C(C)(C)c2cc(Cl)cc(NC(=O)c3cc4cc(NS(C)(=O)=O)ccc4s3)c2)c1` [Example 134, N-(3-(2-(3-((2-oxa-7-azaspiro[3,5]nonan-7-yl)methyl)-5-isopropoxyphenyl)propan-2-yl)-5-chlorophenyl)-5-(methylsulfonamido)benzo[b]thiophene-2-carboxamide]: the IC50 came out at 0.27 µM at STAT3, 0.84 µM in the experiment with LNCaP and 0.16 µM in the experiment with DU-145.
The matching figures for `CC(C)Oc1cc(CN2CCN(c3nnc(C(C)C)o3)CC2)cc(C(C)(C)c2cc(Cl)cc(NC(=O)c3cc4cc(NS(C)(=O)=O)ccc4s3)c2)c1` [Example 135, N-(3-chloro-5-(2-(3-isopropoxy-5-((4-(5-isopropyl-1,3,4-oxadiazol-2-yl)piperazin-1-yl)methyl)phenyl)propan-2-yl)phenyl)-5-(methylsulfonamido)benzo[b]thiophene-2-carboxamide]: 0.14 µM, 0.85 µM and 0.3 µM.
`CC(C)Oc1cc(CN2CCN(c3noc(C(C)C)n3)CC2)cc(C(C)(C)c2cc(F)cc(NC(=O)c3cc4cc(NS(C)(=O)=O)ccc4s3)c2)c1` [Example 136, N-(3-fluoro-5-(2-(3-isopropoxy-5-((4-(5-isopropyl-1,2,4-oxadiazol-3-yl)piperazin-1-yl)methyl)phenyl)propan-2-yl)phenyl)-5-(methylsulfonamido)benzo[b]thiophene-2-carboxamide]: the IC50 is 0.059 µM against STAT3, 0.38 µM in the experiment with LNCaP and 0.051 µM with DU-145.
Turning to `CC(C)Oc1cc(CN2CCOCC2)cc(C(C)(C)c2cc(F)cc(NC(=O)c3cc4cc(NS(C)(=O)=O)ccc4s3)c2)c1` [Example 137, N-(3-fluoro-5-(2-(3-isopropoxy-5-(morpholinomethyl)phenyl)propan-2-yl)phenyl)-5-(methylsulfonamido)benzo[b]thiophene-2-carboxamide], the figures for the IC50 at STAT3, in the experiment on LNCaP and in the experiment with DU-145 were 0.22 µM, 0.4 µM and 0.1 µM, respectively.
For the molecule `Cn1nccc1-c1ccc(C(C)(C)c2cc(Cl)cc(NC(=O)c3cc4cc(NS(C)(=O)=O)ccc4s3)c2)cc1` [Example 159, N-(3-chloro-5-(2-(4-(1-methyl-1H-pyrazol-5-yl)phenyl)propan-2-yl)phenyl)-5-(methylsulfonamido)benzo[b]thiophene-2-carboxamide], the results for the IC50 at STAT3, in the experiment with LNCaP and in the experiment on DU-145 were 0.31 µM, 0.16 µM and 0.14 µM, respectively.
For `C[S+]([O-])c1ccc(C(C)(C)c2cc(Cl)cc(NC(=O)c3cc4cc(NS(C)(=O)=O)ccc4s3)c2)cc1` (stereo not drawn) [Example 160, N-(3-chloro-5-(2-(4-(methylsulfinyl)phenyl)propan-2-yl)phenyl)-5-(methylsulfonamido)benzo[b]thiophene-2-carboxamide], in that order: 3.3 µM, over 1.1 µM and over 1.1 µM.
Take `CC(C)(c1ccc(S(C)(=O)=O)cc1)c1cc(Cl)cc(NC(=O)c2cc3cc(NS(C)(=O)=O)ccc3s2)c1` [Example 161, N-(3-chloro-5-(2-(4-(methylsulfonyl)phenyl)propan-2-yl)phenyl)-5-(methylsulfonamido)benzo[b]thiophene-2-carboxamide]: the results for the IC50 against STAT3, in the experiment on LNCaP and in the experiment with DU-145 were over 10 µM, over 1.1 µM and 0.72 µM, respectively.
Take `CC(C)(c1cc(Cl)cc(NC(=O)c2cc3cc(NS(C)(=O)=O)c(Cl)cc3s2)c1)N1CCCCC1` [Example 165, 6-chloro-N-(3-chloro-5-(2-(piperidin-1-yl)propan-2-yl)phenyl)-5-(methylsulfonamido)benzo[b]thiophene-2-carboxamide]: the half-inhibitory concentration (IC50) on STAT3 came out at 0.13 µM; with LNCaP it was 0.11 µM; with DU-145, 0.07 µM.
On to `CC(C)(c1cc(Cl)cc(NC(=O)c2cc3cc(NS(C)(=O)=O)ccc3s2)c1)c1cccs1` [Example 170, N-(3-chloro-5-(2-(thiophen-2-yl)propan-2-yl)phenyl)-5-(methylsulfonamido)benzo[b]thiophene-2-carboxamide], for which the results for the IC50 against STAT3, in the experiment on LNCaP and in the experiment with DU-145 were 0.068 µM, 0.059 µM and 0.005 µM, respectively.
The matching figures for `CC(C)(c1ccsc1)c1cc(Cl)cc(NC(=O)c2cc3cc(NS(C)(=O)=O)ccc3s2)c1` [Example 171, N-(3-chloro-5-(2-(thiophen-3-yl)propan-2-yl)phenyl)-5-(methylsulfonamido)benzo[b]thiophene-2-carboxamide]: 0.074 µM, 0.071 µM and 0.038 µM.
As to `CC(C)(c1ccc(Cl)cc1)c1cc(Cl)cc(NC(=O)c2cc3cc(NS(C)(=O)=O)c(Cl)cc3s2)c1` [Example 172, 6-chloro-N-(3-chloro-5-(2-(4-chlorophenyl)propan-2-yl)phenyl)-5-(methylsulfonamido)benzo[b]thiophene-2-carboxamide], the IC50 came to 0.016 µM on STAT3, 0.009 µM with LNCaP and 0.005 µM in the experiment on DU-145.
Consider `CC(C)(c1ccc(Cl)cc1)c1cc(Cl)cc(NC(=O)c2cc3cc(NS(C)(=O)=O)c(Br)cc3s2)c1` [Example 173, 6-bromo-N-(3-chloro-5-(2-(4-chlorophenyl)propan-2-yl)phenyl)-5-(methylsulfonamido)benzo[b]thiophene-2-carboxamide], for which the results for the IC50 at STAT3, in the experiment with LNCaP and in the experiment on DU-145 were 0.011 µM, 0.11 µM and 0.009 µM, respectively.
Consider `CC(C)(c1cc(Cl)cc(NC(=O)c2cc3cc(NS(C)(=O)=O)ccc3s2)c1)c1ccc(Cl)s1` [Example 174, N-(3-chloro-5-(2-(5-chlorothiophen-2-yl)propan-2-yl)phenyl)-5-(methylsulfonamido)benzo[b]thiophene-2-carboxamide], for which the IC50 at STAT3 was 0.1 µM; in the experiment on LNCaP it was 0.091 µM; with DU-145, 0.033 µM.
